In article PMC8671752, “Effects of ex vivo Extracorporeal Membrane Oxygenation Circuits on Sequestration of Antimicrobial Agents” (Frontiers in Medicine, 2021):
Marks after values point to notes of the source that are not given here. Values belong to the molecule of their own block, whether it stands above or below them. Starred links: 1 amine or outer side, 2 acyl side, 3 side chain; linkers in the order of their positions; H or OH if unused. Positions of bridges follow the written chain, without caps; N, C: chain ends. Non-standard residues stand in square brackets, D forms with d. Residues, ends and D or L forms follow the SMILES beside them. *: point of attachment. hTyr(3S-OH,4S-OH,3'-OSO3H) = N[C@H](C(=O)O)[C@H](O)[C@@H](O)c1ccc(O)c(OS(=O)(=O)O)c1; Orn(4R-OH,5R-OH) = O=C([C@H](C[C@@H](O)[C@@H](O)N[*:3])N[*:1])[*:2]; Pro(3S-OH,4S-Me) = C[C@H]1CN[C@H](C(=O)O)[C@H]1O; X2 = CCCCCOc1ccc(-c2cc(-c3ccc(C(=O)*)cc3)no2)cc1; Gln(3R-OH) = NC(=O)C[C@@H](O)[C@H](N)C(=O)O; Hyp = O=C(O)[C@@H]1C[C@@H](O)CN1; X1 = CC[C@H](C)CCCCC(=O)*; Dab = NCC[C@H](N)C(=O)O

Assays:
[1] = cited from earlier work; for Lipophilicity (log P): ref DrugBank [12]
[2] = Drug recovery in the Maquet ECMO circuit; details: Bioline-coated circuit, whole human blood, 37°C, HPLC-MS/MS, % of 2 min concentration, mean (SD), n=2
Protocol: (§1) Four healthy volunteers were recruited. After obtaining informed consent, 402 ml of blood was collected through the cubitus vein using disposable blood bags (Fresenius Kabi), of which 2 ml was used for a routine blood examination. Sorin (LivaNova, London, United Kingdom) and Maquet (Getinge AB, Hirrlingen, Germany) ECMO circuits were used to establish self-circulation and were primed with fresh whole human blood. After the circulation stabilized, the drugs were added to the circuit. Blood samples were collected at different time points, and the drug concentration was measured to observe the recovery rate of different drugs in the ECMO cycle.
(§2) Each circuit consisted of a membrane oxygenator, centrifugal pump, cannula, heat exchanger, and PVC tubing. The materials of each ECMO component are shown in Supplementary Material 1. A reservoir bag containing 30 mL of blood was used to construct a bypass to maintain the pressure of the circuit (Figure 1). Eight hundred milliliters of fresh whole human blood (<1 h old) was used to prime the circuit. Heparin (5,000 U) was added to the circuits to prevent clotting.
(§3) The circuit flow rate was controlled at 4–5 L/min. Circuit temperature was maintained at 37°C.
(§4) These bolus doses were selected to produce concentrations similar to clinical concentrations. The order of administration was determined according to the half-life from long to short. According to the drug instructions, none of the drugs interact with each other ([12]). Two milliliters of physiological saline solution (0.9%) was used to flush the tube after injection of all drugs to avoid drug loss at the entrance of administration.
(§5) In this study, two experiments were carried out and 26 blood samples were analyzed. The first experiment was conducted with the Maquet ECMO circuit. […] The blood samples collected at each time point were measured twice due to the uncertainty of the initial experiment.

[3] = Drug recovery in the Sorin ECMO circuit; details: phosphorylcholine-coated circuit, whole human blood, 37°C, HPLC-MS/MS, % of 2 min concentration, single measurement
Protocol: as §1, §2, §3, §4, §5

[4] = Control group: spontaneous drug degradation in whole blood at 37°C; details: HPLC-MS/MS; for Mean drug recovery, Control-3 h (Maquet experiment) / Mean drug recovery, Control-6 h (Maquet experiment) / Mean drug recovery, Control-12 h (Maquet experiment) / Mean drug recovery, Control-24 h (Maquet experiment): control of Maquet experiment, n=2; for Mean drug recovery, Control-3 h (Maquet experiment) / Mean drug recovery, Control-6 h (Maquet experiment) / Mean drug recovery, Control-12 h (Maquet experiment) / Mean drug recovery, Control-24 h (Maquet experiment) / Drug recovery, Control-6 h (Sorin experiment) / Drug recovery, Control-24 h (Sorin experiment) / Drug recovery, Control-3 h (Sorin experiment): whole human blood, no circuit, % of 2 min concentration; for Mean drug recovery, Control-3 h (Maquet experiment) / Drug recovery, Control-3 h (Sorin experiment): water bath 37°C 3 h; for Mean drug recovery, Control-3 h (Maquet experiment) / Mean drug recovery, Control-6 h (Maquet experiment) / Mean drug recovery, Control-12 h (Maquet experiment) / Mean drug recovery, Control-24 h (Maquet experiment) / Drug recovery (%) from control group at 24 h: mean (SD), SD; for Mean drug recovery, Control-6 h (Maquet experiment) / Drug recovery, Control-6 h (Sorin experiment): water bath 37°C 6 h; for Mean drug recovery, Control-12 h (Maquet experiment): water bath 37°C 12 h; for Mean drug recovery, Control-24 h (Maquet experiment) / Drug recovery, Control-24 h (Sorin experiment) / Drug recovery (%) from control group at 24 h: water bath 37°C 24 h; for Drug recovery, Control-6 h (Sorin experiment) / Drug recovery, Control-24 h (Sorin experiment) / Drug recovery, Control-3 h (Sorin experiment): control of Sorin experiment, single measurement; for Drug recovery (%) from control group at 24 h: controls of both experiments, whole human blood taken 2 min after injection, not passed through circuit, relative to 2 min baseline
[5] = Drug recovery in blood-primed ex vivo ECMO circuits (average of Maquet and Sorin); details: for Drug recovery (%) from circuits at 24 h: average over Maquet and Sorin circuits, closed loop primed with fresh whole human blood, 37°C, pH 7.25–7.55, 4–5 L/min, plasma HPLC-MS/MS, relative to 2 min baseline, mean (SD), SD
Protocol: as §1, §2, §3, §4

[6] = cited from earlier work
[7] = ref DrugBank [12]; cited from earlier work
[8] = cited from earlier work; remark: listed apart in the source

Mean drug recovery, Maquet circuit, 5 min [2]: 102% (3%)
Mean drug recovery, Maquet circuit, 15 min [2]: 100% (4%)
Mean drug recovery, Maquet circuit, 30 min [2]: 100% (2%)
Mean drug recovery, Maquet circuit, 1 h [2]: 102% (1%)
Mean drug recovery, Maquet circuit, 3 h [2]: 98% (2%)
Mean drug recovery, Maquet circuit, 6 h [2]: 99% (1%)
Mean drug recovery, Maquet circuit, 12 h [2]: 91% (5%)
Mean drug recovery, Maquet circuit, 24 h [2]: 81% (1%)
Drug recovery, Sorin circuit, 5 min [3]: 100%
Drug recovery, Sorin circuit, 15 min [3]: 100%
Drug recovery, Sorin circuit, 30 min [3]: 99%
Drug recovery, Sorin circuit, 1 h ([3]; 1 h): 102%
Drug recovery, Sorin circuit, 6 h [3]: 98%
Drug recovery, Sorin circuit, 12 h [3]: 92%
Drug recovery, Sorin circuit, 24 h [3]: 75%
Mean drug recovery, Control-3 h (Maquet experiment) [4]: 100% (0%)
Mean drug recovery, Control-6 h (Maquet experiment) [4]: 99% (0%)
Mean drug recovery, Control-12 h (Maquet experiment) [4]: 100% (2%)
Mean drug recovery, Control-24 h (Maquet experiment) [4]: 98% (2%)
Drug recovery, Control-6 h (Sorin experiment) [4]: 98%
Drug recovery, Control-24 h (Sorin experiment) [4]: 98%
Drug recovery (%) from control group at 24 h [4]: 98.30 (1.17) %
Compound: CCN1CCN(C(=O)N[C@@H](C(=O)N[C@@H]2C(=O)N3C(C(=O)O)=C(CSc4nnnn4C)CS[C@H]23)c2ccc(O)cc2)C(=O)C1=O [Cefoperazone, cefoperazone]
Lipophilicity (log P) [1]: −0.74

Mean drug recovery, Maquet circuit, 5 min [2]: 100% (0%)
Mean drug recovery, Maquet circuit, 15 min [2]: 100% (1%)
Mean drug recovery, Maquet circuit, 30 min [2]: 101% (4%)
Mean drug recovery, Maquet circuit, 1 h [2]: 98% (0%)
Mean drug recovery, Maquet circuit, 3 h [2]: 93% (2%)
Mean drug recovery, Maquet circuit, 6 h [2]: 83% (7%)
Mean drug recovery, Maquet circuit, 12 h [2]: 64% (2%)
Mean drug recovery, Maquet circuit, 24 h [2]: 45% (5%)
Drug recovery, Sorin circuit, 3 h [3]: 100%
Drug recovery, Sorin circuit, 6 h [3]: 92%
Drug recovery, Sorin circuit, 12 h [3]: 74%
Drug recovery, Sorin circuit, 24 h [3]: 47%
Drug recovery (%) from circuits at 24 h [5]: 45.37 (3.58) %
Average loss at 24 h in the circuits ([5]; loss, average of Maquet and Sorin circuits): 55%
Mean drug recovery, Control-3 h (Maquet experiment) [4]: 97% (4%)
Mean drug recovery, Control-6 h (Maquet experiment) [4]: 91% (9%)
Mean drug recovery, Control-12 h (Maquet experiment) [4]: 77% (8%)
Mean drug recovery, Control-24 h (Maquet experiment) [4]: 65% (10%)
Drug recovery, Control-3 h (Sorin experiment) [4]: 97%
Drug recovery, Control-6 h (Sorin experiment) [4]: 102%
Drug recovery, Control-24 h (Sorin experiment) [4]: 95%
Drug recovery (%) from control group at 24 h [4]: 74.84 (19.10) %
Compound: C[C@@H](O)[C@H]1C(=O)N2C(C(=O)O)=C(S[C@@H]3CN[C@H](C(=O)N(C)C)C3)[C@H](C)[C@H]12 [Meropenem, meropenem]
Lipophilicity (log P) [1]: −0.6

Drug recovery (%) from circuits at 24 h [5]: 100.03 (13.68) %
Drug recovery (%) from control group at 24 h [4]: 144.54 (2.31) %
Compound: CN(C)c1cc(NC(=O)CNC(C)(C)C)c(O)c2c1C[C@H]1C[C@H]3[C@H](N(C)C)C(O)=C(C(N)=O)C(=O)[C@@]3(O)C(O)=C1C2=O [Tigecycline, tigecycline]
Lipophilicity (log P) [1]: 0.8
Average Vd in critically ill patients ([6]; critically ill patients, no reference given): 398 L

Compound: C[C@@H](c1ncncc1F)[C@](O)(Cn1cncn1)c1ccc(F)cc1F [Voriconazole, voriconazole]
Lipophilicity (log P) [1]: 2.561

Compound: CC[C@H](C)CCCCC(=O)N[C@@H](CCN)C(=O)N[C@H](C(=O)N[C@@H](CCN)C(=O)N[C@H]1CCNC(=O)[C@H]([C@@H](C)O)NC(=O)[C@H](CCN)NC(=O)[C@H](CCN)NC(=O)[C@H](CC(C)C)NC(=O)[C@@H](Cc2ccccc2)NC(=O)[C@H](CCN)NC1=O)[C@@H](C)O [Polymyxin B, polymyxin B] (X1-[Dab]T[Dab][Dab][Dab][dF]L[Dab][Dab]T; lactam 4-C)
Lipophilicity (log P) [1]: −4.861
Drug recovery, Sorin circuit, 5 min [3]: 118%
Drug recovery, Sorin circuit, 15 min [3]: 86%
Drug recovery, Sorin circuit, 30 min [3]: 84%
Drug recovery, Sorin circuit, 3 h [3]: 117%
Drug recovery, Sorin circuit, 6 h [3]: 74%
Drug recovery, Sorin circuit, 12 h [3]: 74%
Drug recovery, Sorin circuit, 24 h [3]: 61.66 (-)^* %
Protein binding rate (%) [7]: 79–92%
Drug recovery, Control-3 h (Sorin experiment) [4]: 91%
Drug recovery, Control-6 h (Sorin experiment) [4]: 93%
Drug recovery, Control-24 h (Sorin experiment) [4]: 60.10 (-)^* %

Compound: CC[C@H](C)C[C@H](C)CCCCCCCCC(=O)N[C@H]1C[C@@H](O)[C@@H](NCCN)NC(=O)[C@@H]2[C@@H](O)CCN2C(=O)[C@H]([C@H](O)CCN)NC(=O)[C@H]([C@H](O)[C@@H](O)c2ccc(O)cc2)NC(=O)[C@@H]2C[C@@H](O)CN2C(=O)[C@H]([C@@H](C)O)NC1=O [Caspofungin, caspofungin]
Lipophilicity (log P) [1]: −2.798
Average drug recovery at 24 h in the ECMO circuit ([8]; ex vivo experiment by Shekar et al.): 56%
Protein binding rate (%) [7]: 97%
Drug recovery (%) from circuits at 24 h [5]: 83.26 (6.17) %
Drug recovery (%) from control group at 24 h [4]: 85.24 (7.93) %

Compound: CCCCCOc1ccc(-c2cc(-c3ccc(C(=O)N[C@H]4C[C@@H](O)[C@@H](O)NC(=O)[C@@H]5[C@@H](O)[C@@H](C)CN5C(=O)[C@H]([C@H](O)CC(N)=O)NC(=O)[C@H]([C@H](O)[C@@H](O)c5ccc(O)c(OS(=O)(=O)O)c5)NC(=O)[C@@H]5C[C@@H](O)CN5C(=O)[C@H]([C@@H](C)O)NC4=O)cc3)no2)cc1 [Micafungin, micafungin] (X2-[Orn(4R-OH,5R-OH)]T[Hyp][hTyr(3S-OH,4S-OH,3'-OSO3H)][Gln(3R-OH)][Pro(3S-OH,4S-Me)]; lactam 1-C)
Lipophilicity (log P) [1]: −1.5
Average drug recovery in the control group at 24 h ([8]; control group, ex vivo study by Watt et al.): 57%
Average drug recovery in the ECMO loop at 24 h ([8]; ex vivo study by Watt et al.): 26–43%
Drug recovery, Sorin circuit, 24 h [3]: 66.85 (-)^* %
Protein binding rate (%) [7]: > 99%
Vd in infants on ECMO, higher than in infants not on ECMO ([6]; infants on ECMO versus infants not on ECMO): 20–90%
Drug recovery, Control-24 h (Sorin experiment) [4]: 98.82 (-)^* %

Compound: CC(C)c1cccc(C(C)C)c1O [propofol]
octanol/water partition (log P) [1]: 4.0
